In ChEMBL document CHEMBL5647694, “Novel orally bioavailable EZH1/2 dual inhibitors with greater antitumor efficacy than an EZH2 selective inhibitor” (Cancer Sci, 2017):

Experiments:
[1] = biological target: MAP kinase-interacting serine/threonine-protein kinase 1 (Homo sapiens) (UniProt Q9BUB5); assay: Inhibition of N-terminal GST-fused full length human MNK1 (1 to 424 residues) expressed in baculovirus expression system using RS peptide as substrate at 1 uM in presence of ATP by Mobility shift assay
[2] = biological target: Death-associated protein kinase 1 (Homo sapiens) (UniProt P53355); assay: Inhibition of N-terminal GST-fused human DAPK1 catalytic domain (1 to 289 residues) expressed in baculovirus expression system using DAPK1tide as substrate at 1 uM in presence of ATP by Mobility shift assay
[3] = biological target: Calcium/calmodulin-dependent protein kinase type IV (Homo sapiens) (UniProt Q16566); assay: Inhibition of N-terminal GST-tagged full length human CAMK4 (1 to 473 residues) expressed in baculovirus-infected Sf21 cells using GS peptide as substrate at 1 uM in presence of ATP by Mobility shift assay
[4] = biological target: Dual specificity protein kinase CLK2 (Homo sapiens) (UniProt P49760); assay: Inhibition of N-terminal GST-fused full length human CLK2 (1 to 499 residues) expressed in baculovirus expression system using DYRKtide-F as substrate at 1 uM in presence of ATP by Mobility shift assay
[5] = biological target: Serine/threonine-protein kinase BRSK1 (Homo sapiens) (UniProt Q8TDC3); assay: Inhibition of N-terminal GST-tagged full length human BRSK1 (1 to 778 residues) expressed in baculovirus-infected Sf21 cells using CHKtide as substrate at 1 uM in presence of ATP by Mobility shift assay
[6] = biological target: Mitogen-activated protein kinase kinase kinase kinase 4 (Homo sapiens) (UniProt O95819); assay: Inhibition of N-terminal GST-fused human HGK catalytic domain (1 to 328 residues) expressed in baculovirus expression system using Moesin-derived peptide as substrate at 1 uM in presence of ATP by Mobility shift assay
[7] = biological target: Protein-tyrosine kinase 6 (Homo sapiens) (UniProt Q13882); assay: Inhibition of N-terminal GST-fused full length human BRK (2 to 451 residues) expressed in baculovirus-infected Sf21 cells using Blk/Lyntide as substrate at 1 uM in presence of ATP by Mobility shift assay
[8] = biological target: Macrophage-stimulating protein receptor (Homo sapiens) (UniProt Q04912); assay: Inhibition of N-terminal GST-tagged human RON cytoplasmic domain (979 to 1400 residues) expressed in baculovirus-infected Sf21 cells using Srctide as substrate at 1 uM in presence of ATP by Mobility shift assay
[9] = biological target: Serine/threonine-protein kinase 3 (Homo sapiens) (UniProt Q13188); assay: Inhibition of N-terminal GST-fused full length human MST2 (1 to 491 residues) expressed in baculovirus expression system using IRS1 as substrate at 1 uM in presence of ATP by Mobility shift assay
[10] = biological target: Homeodomain-interacting protein kinase 1 (Homo sapiens) (UniProt Q86Z02); assay: Inhibition of N-terminal GST-fused human HIPK1 catalytic domain (158 to 555 residues) expressed in baculovirus expression system using DYRKtide-F as substrate at 1 uM in presence of ATP by Mobility shift assay
[11] = biological target: PI3-kinase p110-alpha/p85-alpha (Homo sapiens) (UniProt P27986+P42336); assay: Inhibition of N-terminal DYKDDDDK tagged, biotinylated full length human PIK3CA (1 to 1068 residues)/human PIK3R1 (1 to 724 residues) expressed in baculovirus expression system using PI(4,5)P2 as substrate at 1 uM in presence of ATP by ADP-Glo assay
[12] = biological target: cGMP-dependent protein kinase 2 (Homo sapiens) (UniProt Q13237); assay: Inhibition of N-terminal GST-fused full length human CGK2 (1 to 762 residues) expressed in baculovirus expression system using Kemptide as substrate at 1 uM in presence of ATP by Mobility shift assay
[13] = biological target: Protein kinase C beta type (Homo sapiens) (UniProt P05771); assay: Inhibition of N-terminal GST-fused human full length PKC-beta2 (1 to 673 residues ) expressed in baculovirus expression system using PKC peptide as substrate at 1 uM in presence of ATP by Mobility shift assay
[14] = biological target: Aurora kinase B (Homo sapiens) (UniProt Q96GD4); assay: Inhibition of human AurB at 1 uM by Mobility shift assay
[15] = biological target: Serine/threonine-protein kinase TAO2 (Homo sapiens) (UniProt Q9UL54); assay: Inhibition of N-terminal GST-fused human TAOK2 catalytic domain (1 to 319 residues) expressed in baculovirus expression system using TAOKtide as substrate at 1 uM in presence of ATP by Mobility shift assay
[16] = biological target: Serine/threonine-protein kinase D1 (Homo sapiens) (UniProt Q15139); assay: Inhibition of N-terminal GST-fused full length human PKD1 (1 to 912 residues) expressed in baculovirus expression system using GS peptide as substrate at 1 uM in presence of ATP by Mobility shift assay
[17] = biological target: Serine/threonine-protein kinase PAK 5 (Homo sapiens) (UniProt Q9P286); assay: Inhibition of N-terminal GST-fused human PAK5 catalytic domain (425 to 719 residues) expressed in baculovirus expression system using DAPK1tide as substrate at 1 uM in presence of ATP by Mobility shift assay
[18] = biological target: Calcium/calmodulin-dependent protein kinase type II subunit gamma (Homo sapiens) (UniProt Q13555); assay: Inhibition of N-terminal GST-tagged full length human CAMK2g (1 to 518 residues) expressed in baculovirus-infected Sf21 cells using GS peptide as substrate at 1 uM in presence of ATP by Mobility shift assay
[19] = biological target: High affinity nerve growth factor receptor (Homo sapiens) (UniProt P04629); assay: Inhibition of N-terminal GST-tagged human TRKA cytoplasmic domain (436 to 790 residues) expressed in baculovirus-infected Sf21 cells using CSKtide as substrate at 1 uM in presence of ATP by Mobility shift assay
[20] = biological target: Protein kinase C theta type (Homo sapiens) (UniProt Q04759); assay: Inhibition of N-terminal GST-fused human full length PKC-theta (1 to 706 residues ) expressed in baculovirus expression system using PKC peptide as substrate at 1 uM in presence of ATP by Mobility shift assay
[21] = biological target: Serine/threonine-protein kinase Nek7 (Homo sapiens) (UniProt Q8TDX7); assay: Inhibition of N-terminal GST-fused full length human NEK7 (1 to 302 residues) expressed in baculovirus expression system using CDK7 peptide as substrate at 1 uM in presence of ATP by Mobility shift assay
[22] = biological target: Serine/threonine-protein kinase 38 (Homo sapiens) (UniProt Q15208); assay: Inhibition of N-terminal GST-fused full length human NDR1 (1 to 465 residues) expressed in baculovirus expression system using SGKtide as substrate at 1 uM in presence of ATP by Mobility shift assay
[23] = biological target: SRSF protein kinase 1 (Homo sapiens) (UniProt Q96SB4); assay: Inhibition of N-terminal GST-fused full length human SRPK1 (1 to 655 residues) expressed in Escherichia coli expression system using SRPKtide as substrate at 1 uM in presence of ATP by IMAP assay

Sequence of cGMP-dependent protein kinase 2 (Homo sapiens) (Q13237 whole entry, the tested form may be a part): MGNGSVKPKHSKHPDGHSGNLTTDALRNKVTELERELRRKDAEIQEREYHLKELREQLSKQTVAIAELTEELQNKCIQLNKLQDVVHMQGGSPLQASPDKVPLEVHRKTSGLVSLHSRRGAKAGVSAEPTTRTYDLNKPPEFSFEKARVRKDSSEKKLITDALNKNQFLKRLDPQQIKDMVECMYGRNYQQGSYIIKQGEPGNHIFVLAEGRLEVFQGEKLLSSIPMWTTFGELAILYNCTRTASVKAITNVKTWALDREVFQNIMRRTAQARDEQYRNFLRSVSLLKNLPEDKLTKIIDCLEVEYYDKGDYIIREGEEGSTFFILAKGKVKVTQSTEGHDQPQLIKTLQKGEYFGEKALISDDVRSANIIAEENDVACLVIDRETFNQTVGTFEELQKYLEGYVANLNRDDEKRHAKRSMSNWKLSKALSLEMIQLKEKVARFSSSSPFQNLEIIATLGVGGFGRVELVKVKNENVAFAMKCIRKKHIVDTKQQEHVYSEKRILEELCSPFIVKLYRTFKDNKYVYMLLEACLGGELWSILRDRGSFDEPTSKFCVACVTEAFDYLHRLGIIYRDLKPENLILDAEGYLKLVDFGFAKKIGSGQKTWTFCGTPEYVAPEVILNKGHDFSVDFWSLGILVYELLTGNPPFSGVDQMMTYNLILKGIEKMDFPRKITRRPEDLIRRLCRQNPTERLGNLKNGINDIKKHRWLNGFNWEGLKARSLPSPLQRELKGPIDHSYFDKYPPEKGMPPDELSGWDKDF
Sequence of Calcium/calmodulin-dependent protein kinase type IV (Homo sapiens) (Q16566 whole entry, the tested form may be a part): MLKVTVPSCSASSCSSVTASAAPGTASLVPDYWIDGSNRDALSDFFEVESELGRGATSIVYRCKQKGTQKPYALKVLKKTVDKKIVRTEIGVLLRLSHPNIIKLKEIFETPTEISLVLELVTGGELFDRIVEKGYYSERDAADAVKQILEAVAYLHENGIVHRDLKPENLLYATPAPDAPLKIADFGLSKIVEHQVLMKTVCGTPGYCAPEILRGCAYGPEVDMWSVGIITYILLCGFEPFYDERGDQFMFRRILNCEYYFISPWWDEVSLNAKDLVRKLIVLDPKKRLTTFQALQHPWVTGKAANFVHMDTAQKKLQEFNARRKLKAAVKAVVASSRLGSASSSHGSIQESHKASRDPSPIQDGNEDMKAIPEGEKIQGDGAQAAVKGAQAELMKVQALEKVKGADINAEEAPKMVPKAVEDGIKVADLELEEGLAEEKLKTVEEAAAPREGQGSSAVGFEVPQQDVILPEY
Sequence of Dual specificity protein kinase CLK2 (Homo sapiens) (P49760 whole entry, looked up, the tested form may be a part): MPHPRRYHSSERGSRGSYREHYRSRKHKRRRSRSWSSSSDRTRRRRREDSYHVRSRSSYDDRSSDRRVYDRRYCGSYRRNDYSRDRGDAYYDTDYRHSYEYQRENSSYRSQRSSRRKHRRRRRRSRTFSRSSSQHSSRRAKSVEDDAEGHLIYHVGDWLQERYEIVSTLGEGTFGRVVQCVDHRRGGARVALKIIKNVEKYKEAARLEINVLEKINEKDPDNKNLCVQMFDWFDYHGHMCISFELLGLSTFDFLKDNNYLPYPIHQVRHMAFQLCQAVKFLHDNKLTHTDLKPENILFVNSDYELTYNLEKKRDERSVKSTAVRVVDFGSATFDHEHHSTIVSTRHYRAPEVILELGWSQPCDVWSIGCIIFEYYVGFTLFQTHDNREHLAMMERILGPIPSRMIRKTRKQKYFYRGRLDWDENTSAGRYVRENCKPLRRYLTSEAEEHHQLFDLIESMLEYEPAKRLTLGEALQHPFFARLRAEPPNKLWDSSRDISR
Sequence of Serine/threonine-protein kinase Nek7 (Homo sapiens) (Q8TDX7 whole entry, looked up, the tested form may be a part): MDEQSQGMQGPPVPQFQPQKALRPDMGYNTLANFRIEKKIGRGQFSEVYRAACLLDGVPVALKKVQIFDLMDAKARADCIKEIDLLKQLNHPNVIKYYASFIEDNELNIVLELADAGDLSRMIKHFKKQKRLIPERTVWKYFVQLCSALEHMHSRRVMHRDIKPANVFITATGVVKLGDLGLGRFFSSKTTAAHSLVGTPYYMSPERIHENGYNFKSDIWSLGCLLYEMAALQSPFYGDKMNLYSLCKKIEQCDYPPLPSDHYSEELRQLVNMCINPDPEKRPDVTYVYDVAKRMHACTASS
Sequence of MAP kinase-interacting serine/threonine-protein kinase 1 (Homo sapiens) (Q9BUB5 whole entry, looked up, the tested form may be a part): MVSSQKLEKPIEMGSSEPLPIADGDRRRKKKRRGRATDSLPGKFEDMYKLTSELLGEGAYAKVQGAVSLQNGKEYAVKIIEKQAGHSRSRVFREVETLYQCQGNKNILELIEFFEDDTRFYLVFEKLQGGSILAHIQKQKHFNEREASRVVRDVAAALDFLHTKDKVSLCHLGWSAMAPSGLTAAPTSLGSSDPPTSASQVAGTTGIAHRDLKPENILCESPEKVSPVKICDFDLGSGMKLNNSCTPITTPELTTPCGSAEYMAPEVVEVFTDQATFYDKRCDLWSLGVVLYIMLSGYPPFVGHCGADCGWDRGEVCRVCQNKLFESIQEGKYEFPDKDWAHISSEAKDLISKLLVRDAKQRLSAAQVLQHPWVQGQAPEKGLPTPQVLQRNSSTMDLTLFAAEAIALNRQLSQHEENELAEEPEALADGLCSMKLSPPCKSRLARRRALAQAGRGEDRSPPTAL
Sequence of Serine/threonine-protein kinase BRSK1 (Homo sapiens) (Q8TDC3 whole entry, the tested form may be a part): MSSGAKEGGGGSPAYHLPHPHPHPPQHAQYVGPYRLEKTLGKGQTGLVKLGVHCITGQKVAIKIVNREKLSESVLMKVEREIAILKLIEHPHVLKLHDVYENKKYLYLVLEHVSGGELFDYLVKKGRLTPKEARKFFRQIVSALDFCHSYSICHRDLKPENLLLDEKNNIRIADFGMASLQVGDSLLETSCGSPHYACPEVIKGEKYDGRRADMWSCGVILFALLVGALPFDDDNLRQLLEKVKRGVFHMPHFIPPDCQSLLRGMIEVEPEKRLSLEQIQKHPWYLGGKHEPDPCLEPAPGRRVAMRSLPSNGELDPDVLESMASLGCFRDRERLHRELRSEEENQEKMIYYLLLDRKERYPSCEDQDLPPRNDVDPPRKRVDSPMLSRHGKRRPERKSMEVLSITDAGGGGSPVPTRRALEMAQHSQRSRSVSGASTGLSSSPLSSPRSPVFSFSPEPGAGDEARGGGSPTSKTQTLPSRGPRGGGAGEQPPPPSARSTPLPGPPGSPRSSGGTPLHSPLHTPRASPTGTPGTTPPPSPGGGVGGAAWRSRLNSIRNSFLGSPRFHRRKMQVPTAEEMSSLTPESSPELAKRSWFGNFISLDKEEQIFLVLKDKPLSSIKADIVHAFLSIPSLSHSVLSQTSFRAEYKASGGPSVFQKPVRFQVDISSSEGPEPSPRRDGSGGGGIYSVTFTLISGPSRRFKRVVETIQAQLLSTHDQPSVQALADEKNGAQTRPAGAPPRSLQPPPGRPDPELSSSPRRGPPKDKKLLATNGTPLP
Sequence of Calcium/calmodulin-dependent protein kinase type II subunit gamma (Homo sapiens) (Q13555 whole entry, the tested form may be a part): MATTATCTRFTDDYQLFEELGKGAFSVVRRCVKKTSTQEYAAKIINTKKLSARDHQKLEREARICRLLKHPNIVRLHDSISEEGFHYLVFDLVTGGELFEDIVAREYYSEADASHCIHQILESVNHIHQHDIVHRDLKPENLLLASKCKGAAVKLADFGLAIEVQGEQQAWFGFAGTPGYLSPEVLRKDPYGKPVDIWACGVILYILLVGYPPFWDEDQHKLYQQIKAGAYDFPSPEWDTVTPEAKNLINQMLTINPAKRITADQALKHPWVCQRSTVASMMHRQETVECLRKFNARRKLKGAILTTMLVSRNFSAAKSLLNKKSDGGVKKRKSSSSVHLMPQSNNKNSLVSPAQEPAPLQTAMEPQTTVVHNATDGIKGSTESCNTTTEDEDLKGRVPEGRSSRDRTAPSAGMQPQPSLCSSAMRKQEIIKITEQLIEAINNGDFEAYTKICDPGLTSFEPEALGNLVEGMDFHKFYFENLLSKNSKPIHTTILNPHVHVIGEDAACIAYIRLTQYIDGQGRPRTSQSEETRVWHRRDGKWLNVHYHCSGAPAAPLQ
Sequence of Serine/threonine-protein kinase 3 (Homo sapiens) (Q13188 whole entry, the tested form may be a part): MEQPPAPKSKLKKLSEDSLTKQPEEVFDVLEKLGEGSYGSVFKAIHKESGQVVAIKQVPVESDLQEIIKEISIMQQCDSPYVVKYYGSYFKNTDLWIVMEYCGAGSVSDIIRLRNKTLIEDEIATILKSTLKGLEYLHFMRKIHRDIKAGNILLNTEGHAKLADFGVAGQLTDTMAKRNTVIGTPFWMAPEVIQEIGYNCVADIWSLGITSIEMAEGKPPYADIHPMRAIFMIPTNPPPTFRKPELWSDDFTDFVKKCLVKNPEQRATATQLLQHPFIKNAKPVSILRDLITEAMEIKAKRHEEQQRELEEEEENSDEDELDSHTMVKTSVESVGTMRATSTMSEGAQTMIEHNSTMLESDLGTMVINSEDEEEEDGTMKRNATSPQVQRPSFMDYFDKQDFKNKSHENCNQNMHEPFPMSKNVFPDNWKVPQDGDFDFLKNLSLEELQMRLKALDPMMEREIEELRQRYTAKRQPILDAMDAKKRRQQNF
Sequence of Protein-tyrosine kinase 6 (Homo sapiens) (Q13882 whole entry, looked up, the tested form may be a part): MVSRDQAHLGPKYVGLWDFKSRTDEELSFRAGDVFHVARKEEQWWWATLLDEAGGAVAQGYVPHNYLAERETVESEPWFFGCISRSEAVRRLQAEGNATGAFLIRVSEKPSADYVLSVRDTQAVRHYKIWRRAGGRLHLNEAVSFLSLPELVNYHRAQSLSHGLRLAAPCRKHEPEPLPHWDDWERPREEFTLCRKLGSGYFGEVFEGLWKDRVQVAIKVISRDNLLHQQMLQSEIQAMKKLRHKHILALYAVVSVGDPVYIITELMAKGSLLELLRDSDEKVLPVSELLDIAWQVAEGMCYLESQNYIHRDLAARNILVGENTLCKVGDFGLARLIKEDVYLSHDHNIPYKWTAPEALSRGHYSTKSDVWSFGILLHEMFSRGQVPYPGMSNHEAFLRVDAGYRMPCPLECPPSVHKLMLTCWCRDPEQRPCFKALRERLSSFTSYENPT

Structure (SMILES)	inhibition [1]	inhibition [2]	inhibition [3]	inhibition [4]	inhibition [5]	inhibition [6]	inhibition [7]	inhibition [8]	inhibition [9]	inhibition [10]	inhibition [11]	inhibition [12]	inhibition [13]	inhibition [14]	inhibition [15]	inhibition [16]	inhibition [17]	inhibition [18]	inhibition [19]	inhibition [20]	also measured
Cc1cc(C)c(CNC(=O)c2cc(Br)c3c(c2C)O[C@@](C)([C@H]2CC[C@H](N(C)C)CC2)O3)c(=O)[nH]1	-0.2%	3.4%	-2.9%	-1.6%	-1.9%	-0.2%	-3.9%	-4.9%	-2.1%	-4.7%	9.8%	-2.3%	3.2%	-3.7%	-2.8%	-6.9%	-4.3%	-4.8%	-5.1%	6.6%	inhibition [21]: 2.8%; inhibition [22]: -2.6%; inhibition [23]: -4.7%
Cc1cc(C)c(CNC(=O)c2cc(Cl)c3c(c2C)O[C@@](C)([C@H]2CC[C@H](N(C)C)CC2)O3)c(=O)[nH]1 [VALEMETOSTAT]	0.2%	14.9%	-7.2%	2.5%	-3.6%	0.4%	-3%	-3.5%	-1.4%	0.5%	0.6%	-4.3%	-1.1%	-1%	-0.5%	-6.9%	-3.9%	-5.4%	-5.7%	-0.6%	inhibition [21]: 1.6%; inhibition [22]: -0.5%; inhibition [23]: -6.9%
